Measured values taken from patent US20120258127A1 (priority 2010, published 2012).
Where two headings read alike, the source gives them in different places.

Legend:
[1] = tested on: CSFV reference strain Alfort 187; assay type: cell-based, porcine
[2] = tested on: PBMC from vaccinated and challenged pigs; assay type: cell-based
CSFV isolate = tested on: CSFV isolate; set-up: species or system pigs; conditions: pig, in vivo

N[C@H](Cc1c[nH]c2ccccc12)C(=O)O [D-tryptophan]
Effect on IFN-γ mediated reduction in the proportion of CSFV infected cells [1]: unaffected

N[C@@H](Cc1c[nH]c2ccccc12)C(=O)O [L-tryptophan]
Effect on IFN-γ mediated reduction in the proportion of CSFV infected cells [1]: unaffected

IFN-α
Proportion of infected cells [1]: eliminated the infection

L-N-6-(1-iminoethyl)lysine hydrochloride
Effect on IFN-γ mediated reduction in the proportion of CSFV infected cells ([1]; after 48 hours): unaffected

LRAAMVEYSYIFLDEY [SEQ ID NO:2]
Recognition of individual antigenic peptides (IFN-γ) [2]: recognition
Occurrence of symptoms of CSFV infection compared with control group (CSFV isolate): reduced occurrence of symptoms of CSFV infection

NIMARTDHPEPIQLAY [SEQ ID NO:3]
Recognition of individual antigenic peptides (IFN-γ) [2]: recognition
Occurrence of symptoms of CSFV infection compared with control group (CSFV isolate): reduced occurrence of symptoms of CSFV infection

NKYFEPRDSYFQQYML [SEQ ID NO:1]
Occurrence of symptoms of CSFV infection compared with control group (CSFV isolate): reduced occurrence of symptoms of CSFV infection
